Assay results published in patent US9120849B2 (priority 2000, dated 2015).
Read-outs that look alike come from different tables or passages of the source.

Test system: HIV
Conditions: for HIV p24 protein in culture supernatants: CEM cells
Method: This example describes one method of inactivation of the purified virus according to the invention by crosslinking of surface proteins. […] Titrations of the fixative were preformed above and below the concentration recommended by the CDC for inactivation of virus in biological fluids (May 8, 1992/41 (RR-8); 001 CDC Guidelines for the Performance of CD4+ T-Cell Determinations in Persons with Human Immunodeficiency Virus Infection). Initially, purified virus was slowly thawed at 2-8° C. for 6-8 hours to minimize lysis of the virus. Next, while on ice, virus was diluted with cold PBS to a final concentration of approximately 1×10^10 copies/mL (cp/mL). […] The reaction mixtures were then incubated at 2-8° C. for 60 minutes while gently rocking. […] After the addition of glycine the reactions were gently rocked for 2 hr. at 2-8° C. To remove glycine and any excess unquenched fixative each reaction mixture was then dialyzed (10-14K m.w. cutoff) against 1 L PBS (pH 7.4, 2-8° C.) for 4 changes. Dialyzed virus was then transferred into a 15 mL tube and centrifuged for 10 min. at 3,000×g to pellet any precipitated virus. A sample of each supernatant was then tested in cell culture for the presence of infectious virus.
The modified virus produced as described in Example 2 was tested to ensure the process inactivated the virus. As an illustration, the CEM cell line, obtained from the American Type Culture Collection was used as a host cell for viral infectivity studies. Advantages of using this line are that establishment of in vitro HIV infection requires relatively few virions and that the infection is chronic rather than lytic, facilitating analysis. For these studies, infection is detected and followed using the ZeptoMetrix HIV p24 Antigen EIA (ZeptoMetrix, Buffalo N.Y.).
CEM cells are cultured in RPMI-1640 containing 10% FBS in 24 well plates Cells are plated at 10^5 cells per well in a 1 ml volume and 100 ul of various dilutions of virus, either treated or untreated, are added to individual wells. Cultures are fed twice weekly by 50% media replacement and culture supernatants are assayed for HIV p24. All cultures initially contain HIV p24. However, in cultures where virus is noninfectious HIV p24 levels decrease over time eventually reaching background levels.
Different dilutions (1:8,000, 1:80,000, and 1:800,000) of treated virus were then placed into cultures of CEM cells and p24 assays were performed on culture supernatants on days 3, 7, 10, and 14 post-inoculation. Data are expressed as pg/ml of HIV p24 protein in the culture supernatants. The standard curve for the p24 assay is linear from 7.8 pg/ml to 125 pg/ml. HIV p24 concentrations below 7.8 pg/ml are expressed as “<7.8 pg/ml” to indicate sensitivity of the assay, and values above 125 pg/ml are expressed as “>125 pg/ml” since the assay is nonlinear above 125 pg/ml.

paraformaldehyde
HIV p24 protein in culture supernatants (5.0% paraformaldehyde 60 min, treated HIV diluted 1:800,000, 10 days post-inoculation): <7.8 pg/mL | HIV p24 protein in culture supernatants (5.0% paraformaldehyde 60 min, treated HIV diluted 1:800,000, 14 days post-inoculation): <7.8 pg/mL | HIV p24 protein in culture supernatants (exposure time 15 minutes, treated HIV diluted 1:8,000, 3 days post-inoculation): >125 pg/mL | HIV p24 protein in culture supernatants (exposure time 15 minutes, treated HIV diluted 1:8,000, 7 days post-inoculation): >125 pg/mL | HIV p24 protein in culture supernatants (exposure time 15 minutes, treated HIV diluted 1:8,000, 10 days post-inoculation): 43.9 pg/mL | HIV p24 protein in culture supernatants (exposure time 15 minutes, treated HIV diluted 1:8,000, 14 days post-inoculation): <7.8 pg/mL | HIV p24 protein in culture supernatants (exposure time 15 minutes, treated HIV diluted 1:80,000, 3 days post-inoculation): 27.9 pg/mL | HIV p24 protein in culture supernatants (exposure time 15 minutes, treated HIV diluted 1:80,000, 7 days post-inoculation): 18.0 pg/mL | HIV p24 protein in culture supernatants (exposure time 15 minutes, treated HIV diluted 1:80,000, 10 days post-inoculation): <7.8 pg/mL | HIV p24 protein in culture supernatants (exposure time 15 minutes, treated HIV diluted 1:80,000, 14 days post-inoculation): <7.8 pg/mL | HIV p24 protein in culture supernatants (exposure time 15 minutes, treated HIV diluted 1:800,000, 3 days post-inoculation): <7.8 pg/mL | HIV p24 protein in culture supernatants (exposure time 15 minutes, treated HIV diluted 1:800,000, 7 days post-inoculation): <7.8 pg/mL | HIV p24 protein in culture supernatants (exposure time 15 minutes, treated HIV diluted 1:800,000, 10 days post-inoculation): <7.8 pg/mL | HIV p24 protein in culture supernatants (exposure time 15 minutes, treated HIV diluted 1:800,000, 14 days post-inoculation): <7.8 pg/mL | HIV p24 protein in culture supernatants (exposure time 30 minutes, treated HIV diluted 1:8,000, 3 days post-inoculation): >125 pg/mL | HIV p24 protein in culture supernatants (exposure time 30 minutes, treated HIV diluted 1:8,000, 7 days post-inoculation): >125 pg/mL | HIV p24 protein in culture supernatants (exposure time 30 minutes, treated HIV diluted 1:8,000, 10 days post-inoculation): 46.2 pg/mL | HIV p24 protein in culture supernatants (exposure time 30 minutes, treated HIV diluted 1:8,000, 14 days post-inoculation): <7.8 pg/mL | HIV p24 protein in culture supernatants (exposure time 30 minutes, treated HIV diluted 1:80,000, 3 days post-inoculation): 22.6 pg/mL | HIV p24 protein in culture supernatants (exposure time 30 minutes, treated HIV diluted 1:80,000, 7 days post-inoculation): 10.3 pg/mL | HIV p24 protein in culture supernatants (exposure time 30 minutes, treated HIV diluted 1:80,000, 10 days post-inoculation): <7.8 pg/mL | HIV p24 protein in culture supernatants (exposure time 30 minutes, treated HIV diluted 1:80,000, 14 days post-inoculation): <7.8 pg/mL | HIV p24 protein in culture supernatants (exposure time 30 minutes, treated HIV diluted 1:800,000, 3 days post-inoculation): <7.8 pg/mL | HIV p24 protein in culture supernatants (exposure time 30 minutes, treated HIV diluted 1:800,000, 7 days post-inoculation): <7.8 pg/mL | HIV p24 protein in culture supernatants (exposure time 30 minutes, treated HIV diluted 1:800,000, 10 days post-inoculation): <7.8 pg/mL | HIV p24 protein in culture supernatants (exposure time 30 minutes, treated HIV diluted 1:800,000, 14 days post-inoculation): <7.8 pg/mL | HIV p24 protein in culture supernatants (exposure time 60 minutes, treated HIV diluted 1:8,000, 3 days post-inoculation): >125 pg/mL | HIV p24 protein in culture supernatants (exposure time 60 minutes, treated HIV diluted 1:8,000, 7 days post-inoculation): >125 pg/mL | HIV p24 protein in culture supernatants (exposure time 60 minutes, treated HIV diluted 1:8,000, 10 days post-inoculation): 87.4 pg/mL | HIV p24 protein in culture supernatants (exposure time 60 minutes, treated HIV diluted 1:8,000, 14 days post-inoculation): <7.8 pg/mL | HIV p24 protein in culture supernatants (exposure time 60 minutes, treated HIV diluted 1:80,000, 3 days post-inoculation): 59.8 pg/mL | HIV p24 protein in culture supernatants (exposure time 60 minutes, treated HIV diluted 1:80,000, 7 days post-inoculation): 36.0 pg/mL | HIV p24 protein in culture supernatants (exposure time 60 minutes, treated HIV diluted 1:80,000, 10 days post-inoculation): <7.8 pg/mL | HIV p24 protein in culture supernatants (exposure time 60 minutes, treated HIV diluted 1:80,000, 14 days post-inoculation): <7.8 pg/mL | HIV p24 protein in culture supernatants (exposure time 60 minutes, treated HIV diluted 1:800,000, 3 days post-inoculation): <7.8 pg/mL | HIV p24 protein in culture supernatants (exposure time 60 minutes, treated HIV diluted 1:800,000, 7 days post-inoculation): <7.8 pg/mL | HIV p24 protein in culture supernatants (exposure time 60 minutes, treated HIV diluted 1:800,000, 10 days post-inoculation): <7.8 pg/mL | HIV p24 protein in culture supernatants (exposure time 60 minutes, treated HIV diluted 1:800,000, 14 days post-inoculation): <7.8 pg/mL | HIV p24 protein in culture supernatants (exposure time Overnight, treated HIV diluted 1:8,000, 3 days post-inoculation): >125 pg/mL | HIV p24 protein in culture supernatants (exposure time Overnight, treated HIV diluted 1:8,000, 7 days post-inoculation): >125 pg/mL | HIV p24 protein in culture supernatants (exposure time Overnight, treated HIV diluted 1:8,000, 10 days post-inoculation): 27.6 pg/mL | HIV p24 protein in culture supernatants (exposure time Overnight, treated HIV diluted 1:8,000, 14 days post-inoculation): <7.8 pg/mL | HIV p24 protein in culture supernatants (exposure time Overnight, treated HIV diluted 1:80,000, 3 days post-inoculation): 16.3 pg/mL | HIV p24 protein in culture supernatants (exposure time Overnight, treated HIV diluted 1:80,000, 7 days post-inoculation): 17.5 pg/mL | HIV p24 protein in culture supernatants (exposure time Overnight, treated HIV diluted 1:80,000, 10 days post-inoculation): <7.8 pg/mL | HIV p24 protein in culture supernatants (exposure time Overnight, treated HIV diluted 1:80,000, 14 days post-inoculation): <7.8 pg/mL | HIV p24 protein in culture supernatants (exposure time Overnight, treated HIV diluted 1:800,000, 3 days post-inoculation): <7.8 pg/mL | HIV p24 protein in culture supernatants (exposure time Overnight, treated HIV diluted 1:800,000, 7 days post-inoculation): <7.8 pg/mL | HIV p24 protein in culture supernatants (exposure time Overnight, treated HIV diluted 1:800,000, 10 days post-inoculation): <7.8 pg/mL | HIV p24 protein in culture supernatants (exposure time Overnight, treated HIV diluted 1:800,000, 14 days post-inoculation): <7.8 pg/mL | amounts of p24 in the culture supernatants (treatment of virus with paraformaldehyde, by day 14): non-detectable
